Results on five compounds are retold here after ChEMBL document CHEMBL1139417, “Synthesis and biological evaluation of novel 3'-N-tert-butylsulfonyl analogues of docetaxel” (Bioorg Med Chem Lett, 2008).

The structures appear in SMILES notation.

Holding throughout (type): functional, cell-based
One experiment deals with HCT-8. The experiment in a line: Cytotoxicity against human HCT8 cells.
Experiment [1] can be described thus: Cytotoxicity against human Eca109 cells. As to conditions: ECa-109.
Another experiment concerns SMMC-7721. The experiment in a line: Cytotoxicity against human SMMC7721 cells.
The subject of another experiment is HeLa. Kind of experiment: Cytotoxicity against human HeLa cells.

`CC(=O)O[C@@]12CO[C@@H]1C[C@H](O)[C@@]1(C)C(=O)[C@H](O)C3=C(C)[C@@H](OC(=O)[C@H](O)[C@@H](NS(=O)(=O)C(C)(C)C)c4cccc[n+]4[O-])C[C@@](O)([C@@H](OC(=O)c4ccccc4)[C@H]21)C3(C)C`: the IC50 with HCT-8 worked out at 2850 nM; in experiment [1], 1950 nM; with SMMC-7721 it was 2540 nM; in the experiment on HeLa, 2540 nM.
With `CC(=O)O[C@@]12CO[C@@H]1C[C@H](O)[C@@]1(C)C(=O)[C@H](O)C3=C(C)[C@@H](OC(=O)[C@H](O)[C@@H](NC(=O)OC(C)(C)C)c4ccccc4)C[C@@](O)([C@@H](OC(=O)c4ccccc4)[C@H]21)C3(C)C` [DOCETAXEL], the IC50 in the experiment on HCT-8 came to 3070 nM; in experiment [1], 2600 nM; in the experiment with SMMC-7721, 2730 nM; in the experiment with HeLa, 3030 nM.
As to `CC(=O)O[C@H]1C(=O)[C@@]2(C)[C@H]([C@H](OC(=O)c3ccccc3)[C@]3(O)C[C@H](OC(=O)[C@H](O)[C@@H](NC(=O)c4ccccc4)c4ccccc4)C(C)=C1C3(C)C)[C@]1(OC(C)=O)CO[C@@H]1C[C@@H]2O` [PACLITAXEL], the values for the IC50 (with HCT-8; in experiment [1]; with SMMC-7721) were 3290 nM, 2730 nM and 2860 nM, respectively.
On to `CC(=O)O[C@@]12CO[C@@H]1C[C@H](O)[C@@]1(C)C(=O)[C@H](O)C3=C(C)[C@@H](OC(=O)[C@H](O)[C@@H](NS(=O)(=O)C(C)(C)C)c4ccccc4)C[C@@](O)([C@@H](OC(=O)c4ccccc4)[C@H]21)C3(C)C`, for which the IC50 in the experiment with HCT-8 is 9120 nM; in experiment [1], 7140 nM; in the experiment on SMMC-7721 it was > 10000 nM; in the experiment with HeLa, 9540 nM.
Turning to `CC(=O)O[C@@]12CO[C@@H]1C[C@H](O)[C@@]1(C)C(=O)[C@H](O)C3=C(C)[C@@H](OC(=O)[C@H](O)[C@@H](NS(=O)(=O)C(C)(C)C)c4ccc[n+]([O-])c4)C[C@@](O)([C@@H](OC(=O)c4ccccc4)[C@H]21)C3(C)C`, the IC50 in the experiment on HCT-8 was determined as 3030 nM; in experiment [1], 2520 nM; with SMMC-7721, 2450 nM; in the experiment with HeLa it was 2670 nM.

As usually defined, the IC50 is the concentration at which inhibition is half-maximal. Read a high IC50 as a need for much substance.
